According to US20090318501A1, “Piperidine derivatives as renin inhibitors” (priority 2006, published 2009):

Tests used:
[1] = biological target: T1, plasma renin activity (PRA) (Homo sapiens, UniProt P00797); test: In vitro plasma renin activity (PRA) in human plasma, angiotensin I radioimmunoassay; assay type: biochemical; conditions: pooled human plasma, 37° C., 90 min, IC50 of plasma renin activity
T1 construct: 87.3% of pooled mixed-gender human plasma stabilized with EDTA; from tissue; host or cells: pooled mixed-gender human plasma (EDTA)
T1 sequence (P00797 67-406): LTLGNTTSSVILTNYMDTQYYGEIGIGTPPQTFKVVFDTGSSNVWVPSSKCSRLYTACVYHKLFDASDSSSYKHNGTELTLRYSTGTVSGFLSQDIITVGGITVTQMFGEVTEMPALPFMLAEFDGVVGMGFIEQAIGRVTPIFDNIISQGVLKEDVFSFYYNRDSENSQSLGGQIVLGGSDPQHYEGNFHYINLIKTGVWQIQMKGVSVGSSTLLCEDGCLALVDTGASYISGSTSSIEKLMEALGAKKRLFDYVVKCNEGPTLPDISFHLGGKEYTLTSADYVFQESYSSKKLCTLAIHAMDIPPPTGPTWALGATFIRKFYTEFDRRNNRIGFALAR
Protocol: For plasma batches with low PRA (less than 1 ng/ml/hr) ˜2 pM of recombinant human renin was added to achieve PRA of 3-4 ng/ml/hr. The cleavage of endogenous angiotensinogen in plasma was carried out at 37° C. for 90 min and the product angiotensin I was measured by competitive radioimmunoassay using DiaSorin PRA kit.

[2] = biological target: T2, trypsin-activated recombinant human renin (Homo sapiens, UniProt P00797); test: In vitro renin inhibition, fluorescence of internally quenched peptide substrate; assay type: biochemical; conditions: pH 7.0, rt
T2 sequence (P00797 67-406): T1 sequence (P00797 67-406)
Protocol: The sequence of this peptide corresponds to the sequence of human angiotensinogen. The following test protocol was used. All reactions were carried out in a flat bottom white opaque microtiter plate. A 4 μL aliquot of 400 μM renin substrate (DABCYL-γ-[…]) in 192 μL assay buffer (50 mM BES, 150 mM NaCl, 0.25 mg/mL bovine serum albumin, pH7.0) was added to 4 μL of test compound in DMSO at various concentrations ranging from 10 μM to 1 nM final concentrations. Next, 100 μL of trypsin-activated recombinant human renin (final enzyme concentration of 0.2-2 nM) in assay buffer was added, and the solution was mixed by pipetting. The increase in fluorescence at 495 nm (excitation at 340 nm) is measured for 60-360 minutes at rt using a Perkin-Elmer Fusion microplate reader. The slope of a linear portion of the plot of fluorescence-increase as a function of time was then determined, and the rate was used for calculating percent inhibition in relation to uninhibited control. […] (Wang G. T. et al. Anal. Biochem. 1993, 210, 351; Nakamura, N. et al. J. Biochem. (Tokyo) 1991, 109, 741; Murakami, K. et al. Anal Biochem. 1981, 110, 232).

[3] = system: double transgenic rats engineered to express human renin and human angiotensinogen; test: In vivo efficacy in double transgenic rats, telemetry blood pressure; design: species or system rat; conditions: oral, 10 mg/kg, FIG. 3
Protocol: Double Transgenic Rat: The efficacy of the renin inhibitor 6a was evaluated in vivo in double transgenic rats engineered to express human renin and human angiotensinogen (Bohlender J, Fukamizu A, Lippoldt A, Nomura T, Dietz R, Menard J, Murakami K, Luft F C, Ganten D. High human renin hypertension in transgenic rats. Hypertension 1997, 29, 428-434).
(§1) Experiments were conducted in 6-week-old double transgenic rats (dTGRs). The model has been described in detail earlier. […] The human angiotensinogen construct made up the entire human angiotensinogen gene (5 exons and 4 introns), with 1.3 kB of 5′-flanking and 2.4 kB of 3′-flanking sequences. The rats were purchased from RCC Ltd (Füillinsdorf, Switzerland). Radio telemetry transmitters were surgically implanted at 4 weeks of age. The telemetry system provided 24-h recordings of systolic, mean, diastolic arterial pressure (SAP, MAP, DAP, respectively) and heart rate (HR). Beginning on day 42, animals were transferred to telemetry cages. A 24 h telemetry reading was obtained. Rats were then dosed orally on the following 4 consecutive days (days 43-46). The rats were monitored continuously and allowed free access to standard 0.3%-sodium rat chow and drinking water.

[4] = Plasma concentration in transgenic rats after oral administration; assay type: in vivo, rat; conditions: 10 mg/kg, FIG. 2
Protocol: FIG. 2 is a plot showing mean plasma concentrations of compound 6a in transgenic rats over time following oral administration of 10 mg/kg of compound 6a.
as §1

Row | SMILES | IC50 [1] [nM] | IC50 [2] [nM] | effect on mean arterial blood pressure [3] | oral bioavailability and metabolic stability [4] | plasma concentration of compound following oral administration [4]
1 | CNC[C@H](C[C@H]1CCCOC1)NC(=O)N1CCC[C@@H]([C@@H](OCCNC(=O)OC)c2cc(F)cc(Cl)c2)C1 [Compound 3a, methyl 2-((R)-(3-chloro-5-fluorophenyl)((R)-1-((S)-1-(methylamino)-3-((R)-tetrahydro-2H-pyran-3-yl)propan-2-ylcarbamoyl)piperidin-3-yl)methoxy)ethylcarbamate] | < 1 | < 1 | – | – | –
2 | CNC[C@H](C[C@@H]1CCCOC1)NC(=O)N1CCC[C@@H]([C@@H](OCCNC(=O)OC)c2cccc(Cl)c2)C1 [Compound 6b, methyl 2-((R)-(3-chlorophenyl)((R)-1-((S)-1-(methylamino)-3-((S)-tetrahydro-2H-pyran-3-yl)propan-2-ylcarbamoyl)piperidin-3-yl)methoxy)ethylcarbamate] | < 10 | < 10 | – | – | –
3 | CNC[C@H](C[C@H]1CCCOC1)NC(=O)N1CCC[C@@H]([C@@H](OCCNC(=O)OC)c2cccc(F)c2)C1 [Compound 2a, methyl 2-((R)-(3-fluorophenyl)((R)-1-((S)-1-(methylamino)-3-((R)-tetrahydro-2H-pyran-3-yl)propan-2-ylcarbamoyl)piperidin-3-yl)methoxy)ethylcarbamate] | < 10 | < 10 | – | – | –
4 | CNC[C@H](C[C@@H]1CCCOC1)NC(=O)N1CCC[C@@H]([C@@H](OCCNC(=O)OC)c2cc(F)ccc2C)C1 [Compound 5b, methyl 2-((R)-(5-fluoro-2-methylphenyl)((R)-1-((S)-1-(methylamino)-3-((S)-tetrahydro-2H-pyran-3-yl)propan-2-ylcarbamoyl)piperidin-3-yl)methoxy)-ethylcarbamate] | < 50 | < 20 | – | – | –
5 | CNC[C@H](C[C@@H]1CCCOC1)NC(=O)N1CCC[C@@H]([C@@H](OCCNC(=O)OC)c2cccc(F)c2)C1 [Compound 2b, methyl 2-((R)-(3-fluorophenyl)((R)-1-((S)-1-(methylamino)-3-((S)-tetrahydro-2H-pyran-3-yl)propan-2-ylcarbamoyl)piperidin-3-yl)methoxy)ethylcarbamate] | < 20 | < 10 | – | – | –
6 | CNC[C@H](CC1CCCOC1)NC(=O)N1CCC[C@@H]([C@@H](OCCNC(=O)OC)c2cccc(C)c2)C1 (stereo partly drawn) [Compound 1, methyl 2-((R)-((R)-1-((S)-1-(methylamino)-3-(tetrahydro-2H-pyran-3-yl)propan-2-ylcarbamoyl)piperidin-3-yl)(m-tolyl)methoxy)ethylcarbamate] | < 10 | < 10 | – | – | –
7 | CNC[C@H](C[C@H]1CCCOC1)NC(=O)N1CCC[C@@H]([C@@H](OCCNC(=O)OC)c2cc(F)ccc2C)C1 [Compound 5a, methyl 2-((R)-(5-fluoro-2-methylphenyl)((R)-1-((S)-1-(methylamino)-3-((R)-tetrahydro-2H-pyran-3-yl)propan-2-ylcarbamoyl)piperidin-3-yl)methoxy)-ethylcarbamate] | < 10 | < 10 | – | – | –
8 | CNC[C@H](C[C@@H]1CCCOC1)NC(=O)N1CCC[C@@H]([C@@H](OCCNC(=O)OC)c2cc(F)cc(F)c2)C1 [Compound 4b, methyl 2-((R)-(3,5-difluorophenyl)((R)-1-((S)-1-(methylamino)-3-((S)-tetrahydro-2H-pyran-3-yl)propan-2-ylcarbamoyl)piperidin-3-yl)methoxy)ethylcarbamate] | < 50 | < 10 | – | – | –
9 | CCOC(=O)NCCO[C@@H](c1cc(F)cc(Cl)c1)[C@@H]1CCCN(C(=O)N[C@H](CNC)C[C@H]2CCCOC2)C1 [Compound 9, ethyl 2-((R)-(3-chloro-5-fluorophenyl)((R)-1-((S)-1-(methylamino)-3-((R)-tetrahydro-2H-pyran-3-yl)propan-2-ylcarbamoyl)piperidin-3-yl)methoxy)-ethylcarbamate] | < 50 | < 10 | – | – | –
10 | CNC[C@H](C[C@H]1CCCOC1)NC(=O)N1CCC[C@@H]([C@@H](OCCNC(=O)OC)c2cccc(Cl)c2)C1 [Compound 6a, methyl 2-((R)-(3-chlorophenyl)((R)-1-((S)-1-(methylamino)-3-((R)-tetrahydro-2H-pyran-3-yl)propan-2-ylcarbamoyl)piperidin-3-yl)methoxy)ethylcarbamate] | < 1 | < 1 | significant effect in lowering blood pressures | excellent | remains relatively high over 24 h period
11 | CNC[C@H](C[C@H]1CCCOC1)NC(=O)N1CCC[C@@H]([C@@H](OCCNC(=O)OC)c2ccc(F)c(Cl)c2)C1 [Compound 8, methyl 2-((R)-(3-chloro-4-fluorophenyl)((R)-1-((S)-1-(methylamino)-3-((R)-tetrahydro-2H-pyran-3-yl)propan-2-ylcarbamoyl)piperidin-3-yl)methoxy)-ethylcarbamate] | < 10 | < 10 | – | – | –
12 | CNC[C@H](C[C@@H]1CCCOC1)NC(=O)N1CCC[C@@H]([C@@H](OCCNC(=O)OC)c2cc(F)cc(Cl)c2)C1 [Compound 3b, Methyl 2-((R)-(3-chloro-5-fluorophenyl)((R)-1-((S)-1-(methylamino)-3-((S)-tetrahydro-2H-pyran-3-yl)propan-2-ylcarbamoyl)piperidin-3-yl)methoxy)ethylcarbamate] | < 10 | < 10 | – | – | –
13 | CNC[C@H](C[C@H]1CCCOC1)NC(=O)N1CCC[C@@H]([C@@H](OCCNC(=O)OC)c2ccccc2)C1 [Compound 7, methyl 2-((R)-((R)-1-((S)-1-(methylamino)-3-((R)-tetrahydro-2H-pyran-3-yl)propan-2-ylcarbamoyl)piperidin-3-yl)(phenyl)methoxy)ethylcarbamate] | < 50 | < 20 | – | – | –
14 | CNC[C@H](C[C@H]1CCCOC1)NC(=O)N1CCC[C@@H]([C@@H](OCCNC(=O)OC)c2cc(Cl)ccc2C)C1 [Compound 10, methyl 2-((R)-(5-chloro-2-methylphenyl)((R)-1-((S)-1-(methylamino)-3-((R)-tetrahydro-2H-pyran-3-yl)propan-2-ylcarbamoyl)piperidin-3-yl)methoxy)-ethylcarbamate] | < 1 | < 10 | – | – | –
15 | CNC[C@H](C[C@H]1CCCOC1)NC(=O)N1CCC[C@@H]([C@@H](OCCNC(=O)OC)c2cc(F)cc(F)c2)C1 [Compound 4a, methyl 2-((R)-(3,5-difluorophenyl)((R)-1-((S)-1-(methylamino)-3-((R)-tetrahydro-2H-pyran-3-yl)propan-2-ylcarbamoyl)piperidin-3-yl)methoxy)ethylcarbamate] | < 10 | < 10 | – | – | –
